From publication PMC7424564 (Pharmacology Research & Perspectives, 2020)
≈ marks a conversion by molar mass, not a printed value. Where “and” joins values, the source holds several entries; their conditions need not be identical. Equal entries are not always repeated. Entries after “also recorded” stand apart in the source; their conditions may differ. Where two headings read alike, the source gives them in different places.

What was measured:
[1] = target: mutant BTK (C481S) (Homo sapiens, UniProt Q06187, C481S); experiment: BTK enzyme activity assay; type: biochemical
[2] = target: HCK (Homo sapiens, UniProt P08631); experiment: Kinase profiling; type: biochemical
[3] = target: TEC (Homo sapiens, UniProt P42680); experiment: Kinase profiling; type: biochemical
[4] = tested on: HBL‐1 cells; experiment: Cell cytotoxicity assay; type: cell-based; conditions: HBL1, 96 h, read-out: IC50 cell proliferation HBL‐1
[5] = tested on: U2932 cells; experiment: Cell cytotoxicity assay; type: cell-based; conditions: for IC50: Homo sapiens
[6] = tested on: Raji cells; experiment: Cell cytotoxicity assay; type: cell-based; conditions: Homo sapiens, read-out: cell killing potency (IC50) Raji
[7] = target: T1, BTK (Homo sapiens, UniProt Q06187); experiment: Fluorescence competition binding assay
[8] = target: T1, BTK; experiment: Receptor residence time after washout in THP‐1 cells; type: binding; conditions: 500 nmol/L for 1 hour, 24 hours, densitometric scanning
[9] = tested on: phospho‐BTK (Y223); experiment: Phospho‐protein analysis in THP‐1 cells; type: cell-based, human
[10] = tested on: phospho‐PLCγ2 (Y1217); experiment: Phospho‐protein analysis in THP‐1 cells; type: cell-based; conditions: Homo sapiens, THP-1, 1 h, read-out: IC50 PLCγ2‐phosphorylation (Y1217)
[11] = tested on: TNF‐α secretion; experiment: Cytokine ELISA, TNF‐α secretion in THP‐1 cells; type: cell-based; conditions: Homo sapiens, THP-1, read-out: IC50 TNF‐α secretion
[12] = pH dependent solubility; type: physicochemical
[13] = Caco‐2 permeability/efflux ratio; type: in vitro ADME; conditions: human, Caco-2
[14] = tested on: Caco‐2 cell monolayers; experiment: Caco‐2 permeability/efflux ratio; type: in vitro ADME; conditions: Caco2 monolayer
[15] = In vitro metabolism in liver microsomes; type: in vitro ADME; conditions: rat liver microsomes
[16] = In vitro metabolism in liver microsomes; type: in vitro ADME; conditions: dog liver microsomes
[17] = In vitro metabolism in liver microsomes; type: in vitro ADME; conditions: monkey liver microsomes
[18] = target: CYP1A2 (Homo sapiens, UniProt P05177); experiment: In vitro CYP inhibition in human liver microsomes; type: in vitro ADME
[19] = target: CYP2C19 (Homo sapiens, UniProt P33261); experiment: In vitro CYP inhibition in human liver microsomes; type: in vitro ADME
[20] = target: CYP2D6 (Homo sapiens, UniProt P10635); experiment: In vitro CYP inhibition in human liver microsomes; type: in vitro ADME
[21] = target: CYP3A4 (Homo sapiens, UniProt P08684); experiment: In vitro CYP inhibition in human liver microsomes; type: in vitro ADME
[22] = target: CYP2C8 (Homo sapiens, UniProt P10632); experiment: In vitro CYP inhibition in human liver microsomes; type: in vitro ADME
[23] = target: CYP2C9 (Homo sapiens, UniProt P11712); experiment: In vitro CYP inhibition in human liver microsomes; type: in vitro ADME
[24] = Plasma protein binding; type: in vitro ADME; conditions: rat
[25] = Plasma protein binding; type: in vitro ADME; conditions: human
[26] = In vivo pharmacokinetics in mice; conditions: male, BALB/c, mouse, plasma
[27] = In vivo pharmacokinetics in rats; design: species or system male Wistar rats; conditions: rat
[28] = tested on: collagen‐induced arthritis (CIA); experiment: Collagen‐induced arthritis in mice; type: in vivo, DBA1/J male mice; conditions: for reduction of clinical scores compared with vehicle controls: at study termination; for group mean histologic severity score of paws: vehicle 10.4
[29] = tested on: SCW induced arthritis; experiment: Streptococcal cell wall; type: in vivo, Sprague Dawley rats
[30] = Toxicological studies in rats; type: in vivo; conditions: rats up to 300 mg/kg dose (unpublished observation)
[31] = tested on: TMD‐8 DLBCL xenograft tumor; experiment: TMD‐8 xenograft model; conditions: for tumor growth inhibition: 20 consecutive days
[32] = tested on: TMD8 cells; experiment: Cell washout cytotoxicity assay; conditions: TMD‐8 cells; 25 nmol/L
[33] = tested on: IL‐6 secretion; experiment: Cytokine ELISA, IL‐6 secretion in TMD8 cells; conditions: read-out: IC50 IL‐6 secretion, TMD‐8 cells, 16 hours
[34] = male, Wistar, plasma, iv, 1 mg/kg
[35] = male, Wistar, plasma, po, 3 mg/kg

T1 sequence (Q06187 whole entry): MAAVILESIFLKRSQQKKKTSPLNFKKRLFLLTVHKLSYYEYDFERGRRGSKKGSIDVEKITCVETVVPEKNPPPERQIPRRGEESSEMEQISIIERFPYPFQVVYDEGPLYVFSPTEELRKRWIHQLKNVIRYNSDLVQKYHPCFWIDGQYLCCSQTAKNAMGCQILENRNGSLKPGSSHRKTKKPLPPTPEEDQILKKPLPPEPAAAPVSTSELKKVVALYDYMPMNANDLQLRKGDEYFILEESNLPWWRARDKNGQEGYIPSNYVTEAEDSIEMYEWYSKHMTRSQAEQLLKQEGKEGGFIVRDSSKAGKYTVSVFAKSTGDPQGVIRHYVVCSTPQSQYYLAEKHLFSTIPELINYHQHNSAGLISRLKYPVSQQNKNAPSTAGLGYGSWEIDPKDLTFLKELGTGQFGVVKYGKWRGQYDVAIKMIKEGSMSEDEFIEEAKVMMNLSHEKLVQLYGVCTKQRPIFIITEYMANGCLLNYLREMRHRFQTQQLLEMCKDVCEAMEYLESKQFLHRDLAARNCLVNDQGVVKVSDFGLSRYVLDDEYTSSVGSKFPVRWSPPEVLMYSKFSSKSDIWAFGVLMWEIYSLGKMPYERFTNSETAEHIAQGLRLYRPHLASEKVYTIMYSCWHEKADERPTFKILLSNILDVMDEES
Sequence of CYP2C8 (P10632 whole entry): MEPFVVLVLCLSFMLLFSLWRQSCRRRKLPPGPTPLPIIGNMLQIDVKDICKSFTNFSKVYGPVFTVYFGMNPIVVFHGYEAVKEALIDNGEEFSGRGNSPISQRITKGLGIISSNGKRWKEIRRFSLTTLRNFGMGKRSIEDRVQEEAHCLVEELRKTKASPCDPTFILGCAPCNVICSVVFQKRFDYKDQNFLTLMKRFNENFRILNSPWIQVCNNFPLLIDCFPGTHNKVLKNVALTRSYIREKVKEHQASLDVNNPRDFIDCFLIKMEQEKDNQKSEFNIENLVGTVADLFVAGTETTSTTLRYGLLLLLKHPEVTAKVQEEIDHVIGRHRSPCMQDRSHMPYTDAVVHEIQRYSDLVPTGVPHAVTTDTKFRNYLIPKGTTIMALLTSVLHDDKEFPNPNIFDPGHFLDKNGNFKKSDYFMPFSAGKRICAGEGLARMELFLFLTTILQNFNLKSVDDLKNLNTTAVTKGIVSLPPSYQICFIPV
Sequence of CYP2C9 (P11712 whole entry): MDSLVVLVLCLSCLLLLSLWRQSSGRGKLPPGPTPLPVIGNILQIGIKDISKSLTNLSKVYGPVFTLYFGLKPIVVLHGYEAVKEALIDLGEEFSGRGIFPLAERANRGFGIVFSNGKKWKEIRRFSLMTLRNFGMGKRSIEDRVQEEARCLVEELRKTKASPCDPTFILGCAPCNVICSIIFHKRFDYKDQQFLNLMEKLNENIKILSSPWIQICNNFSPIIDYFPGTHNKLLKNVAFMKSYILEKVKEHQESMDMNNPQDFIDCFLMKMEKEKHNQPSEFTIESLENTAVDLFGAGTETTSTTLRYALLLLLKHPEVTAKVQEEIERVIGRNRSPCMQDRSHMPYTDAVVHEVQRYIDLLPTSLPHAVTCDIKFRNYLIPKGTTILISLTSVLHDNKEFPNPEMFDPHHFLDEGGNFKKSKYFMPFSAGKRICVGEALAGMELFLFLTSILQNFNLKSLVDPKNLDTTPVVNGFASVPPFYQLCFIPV
Sequence of CYP2C19 (P33261 whole entry): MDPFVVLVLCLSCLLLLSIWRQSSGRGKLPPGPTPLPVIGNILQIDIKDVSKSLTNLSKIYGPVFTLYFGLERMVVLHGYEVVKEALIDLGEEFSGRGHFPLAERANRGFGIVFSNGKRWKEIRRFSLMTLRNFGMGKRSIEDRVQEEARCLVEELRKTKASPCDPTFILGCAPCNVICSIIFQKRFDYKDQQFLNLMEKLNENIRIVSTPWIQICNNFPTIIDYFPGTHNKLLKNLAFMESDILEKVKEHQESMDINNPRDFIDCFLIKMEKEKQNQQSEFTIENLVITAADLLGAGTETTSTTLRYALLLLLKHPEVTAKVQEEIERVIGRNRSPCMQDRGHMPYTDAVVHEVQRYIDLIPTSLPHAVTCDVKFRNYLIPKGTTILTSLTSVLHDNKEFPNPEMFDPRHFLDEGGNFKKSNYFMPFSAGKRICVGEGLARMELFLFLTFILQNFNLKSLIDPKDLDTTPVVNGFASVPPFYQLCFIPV
Sequence of CYP3A4 (P08684 whole entry): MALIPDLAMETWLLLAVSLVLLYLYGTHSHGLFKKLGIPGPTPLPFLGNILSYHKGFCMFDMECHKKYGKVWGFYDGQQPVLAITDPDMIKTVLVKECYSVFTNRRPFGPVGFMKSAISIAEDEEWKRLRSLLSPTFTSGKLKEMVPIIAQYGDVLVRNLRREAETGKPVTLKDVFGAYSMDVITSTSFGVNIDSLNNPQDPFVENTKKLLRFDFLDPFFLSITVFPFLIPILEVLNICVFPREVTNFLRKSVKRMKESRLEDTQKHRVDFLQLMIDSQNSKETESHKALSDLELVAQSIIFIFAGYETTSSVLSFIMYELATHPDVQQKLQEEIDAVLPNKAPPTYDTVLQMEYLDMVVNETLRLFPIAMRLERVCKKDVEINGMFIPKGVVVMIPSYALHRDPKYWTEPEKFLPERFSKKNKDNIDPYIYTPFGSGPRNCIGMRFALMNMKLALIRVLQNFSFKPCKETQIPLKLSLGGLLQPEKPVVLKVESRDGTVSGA
Sequence of HCK (P08631 whole entry): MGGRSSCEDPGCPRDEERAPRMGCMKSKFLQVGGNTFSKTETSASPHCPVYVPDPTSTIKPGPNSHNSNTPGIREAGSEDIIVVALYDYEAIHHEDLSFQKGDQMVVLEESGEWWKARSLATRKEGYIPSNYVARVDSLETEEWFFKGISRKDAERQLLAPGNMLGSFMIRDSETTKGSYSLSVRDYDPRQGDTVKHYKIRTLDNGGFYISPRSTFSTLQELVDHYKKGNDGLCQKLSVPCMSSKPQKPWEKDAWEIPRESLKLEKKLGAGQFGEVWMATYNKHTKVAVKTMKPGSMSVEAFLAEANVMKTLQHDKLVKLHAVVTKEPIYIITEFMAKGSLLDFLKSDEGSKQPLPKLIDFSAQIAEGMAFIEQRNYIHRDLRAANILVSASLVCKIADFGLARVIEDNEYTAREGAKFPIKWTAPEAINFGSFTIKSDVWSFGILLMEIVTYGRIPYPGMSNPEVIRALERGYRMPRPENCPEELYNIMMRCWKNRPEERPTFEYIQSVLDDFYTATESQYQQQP
Sequence of mutant BTK (C481S) (Q06187 whole entry C481S): as the sequence (Q06187 whole entry) above, with C481S counted along it
Sequence of CYP1A2 (P05177 whole entry): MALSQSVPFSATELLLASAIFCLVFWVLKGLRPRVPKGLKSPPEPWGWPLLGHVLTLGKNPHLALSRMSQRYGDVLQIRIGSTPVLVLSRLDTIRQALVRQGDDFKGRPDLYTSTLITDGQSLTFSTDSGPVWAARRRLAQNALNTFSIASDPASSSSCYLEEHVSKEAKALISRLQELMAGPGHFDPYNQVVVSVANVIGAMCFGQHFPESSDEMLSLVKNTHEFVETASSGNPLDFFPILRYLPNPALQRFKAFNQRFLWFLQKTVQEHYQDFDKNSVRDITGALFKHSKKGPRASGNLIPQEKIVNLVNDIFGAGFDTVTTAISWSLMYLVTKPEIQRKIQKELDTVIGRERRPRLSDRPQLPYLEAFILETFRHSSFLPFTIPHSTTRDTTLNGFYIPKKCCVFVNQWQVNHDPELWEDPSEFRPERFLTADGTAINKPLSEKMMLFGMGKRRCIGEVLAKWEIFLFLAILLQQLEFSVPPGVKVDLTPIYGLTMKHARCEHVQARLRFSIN
Sequence of CYP2D6 (P10635 whole entry): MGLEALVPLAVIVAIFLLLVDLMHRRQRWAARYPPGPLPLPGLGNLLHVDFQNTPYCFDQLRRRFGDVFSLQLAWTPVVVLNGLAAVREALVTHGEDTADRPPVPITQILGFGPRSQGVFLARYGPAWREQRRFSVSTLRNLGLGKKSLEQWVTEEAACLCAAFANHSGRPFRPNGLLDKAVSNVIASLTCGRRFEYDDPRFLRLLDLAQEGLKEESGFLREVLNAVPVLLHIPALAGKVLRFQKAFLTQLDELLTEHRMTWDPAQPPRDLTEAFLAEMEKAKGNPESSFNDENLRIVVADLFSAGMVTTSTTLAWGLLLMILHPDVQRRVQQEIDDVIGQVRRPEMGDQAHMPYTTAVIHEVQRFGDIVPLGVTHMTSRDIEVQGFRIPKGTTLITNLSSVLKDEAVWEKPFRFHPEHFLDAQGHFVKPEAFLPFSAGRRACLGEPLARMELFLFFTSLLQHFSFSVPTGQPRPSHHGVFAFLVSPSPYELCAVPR
Sequence of TEC (P42680 whole entry): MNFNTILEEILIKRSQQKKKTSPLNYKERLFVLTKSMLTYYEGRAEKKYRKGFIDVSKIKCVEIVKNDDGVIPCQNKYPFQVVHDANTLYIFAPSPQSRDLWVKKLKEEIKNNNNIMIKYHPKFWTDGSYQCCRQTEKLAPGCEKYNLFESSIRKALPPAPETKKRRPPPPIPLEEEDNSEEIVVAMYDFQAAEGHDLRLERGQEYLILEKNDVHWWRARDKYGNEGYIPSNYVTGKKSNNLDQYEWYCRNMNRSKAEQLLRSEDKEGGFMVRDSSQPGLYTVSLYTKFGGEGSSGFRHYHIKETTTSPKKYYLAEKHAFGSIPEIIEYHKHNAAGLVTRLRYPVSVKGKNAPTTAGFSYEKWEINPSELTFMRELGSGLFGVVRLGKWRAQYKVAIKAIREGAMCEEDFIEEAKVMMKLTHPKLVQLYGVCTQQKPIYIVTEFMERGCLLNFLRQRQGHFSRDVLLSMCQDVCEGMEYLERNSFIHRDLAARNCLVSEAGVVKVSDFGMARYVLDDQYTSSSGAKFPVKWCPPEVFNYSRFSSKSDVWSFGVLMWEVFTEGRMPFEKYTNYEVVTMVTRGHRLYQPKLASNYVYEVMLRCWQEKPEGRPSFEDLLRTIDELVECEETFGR

C=CC(=O)N1CC2CC(n3nc(-c4ccc(C(=O)Nc5ccccn5)cc4)c4c(N)ncnc43)CC2C1 (stereo not shown) [ZYBT1, 4‐(1‐(2‐acryloyloctahydrocyclopenta[c]pyrrol‐5‐yl)‐4‐amino‐1H‐pyrazolo[3,4‐d]pyrimidin‐3‐yl)‐N‐(pyridin‐2‐yl)benzamide]
IC50 [1]: 14 nM | IC50 [2]: > 10000 nM | IC50 [3]: 38 nM | IC50 [4]: 12 nM | IC50 ([5]; U2932, 96 h, read-out: IC50 cell proliferation U2932): 961 nM | IC50 ([5]; U2932, read-out: IC50 U2932): ~1000 nM | fold resistance of U2932 versus TMD‐8 and HBL‐1 ([5]; within ABC‐DLBCL subgroup): ~ 1000 fold | IC50 [6]: 15000 nM | IC50 [7]: 1 nM | ZYBT1 still bound with BTK after washout [8]: more than 95% | IC50 ([9]; Homo sapiens, THP-1, 1 h, read-out: IC50 BTK‐phosphorylation (Y223)): 2 nM | phosphorylation of BTK after washout ([9]; THP‐1 cells, 500 nmol/L for 1 hour, washout, 24 hours): completely abolished | concentration that completely abrogates phosphorylation of tyrosine 223 ([9]; THP‐1 cells, one hour): ≥ 30 nmol/L | IC50 [10]: 114 nM | IC50 [11]: 1 nM | solubility ([12]; buffer, pH 4.5, aqueous buffer): < 2 µM | solubility ([12]; buffer, pH 6.8, aqueous buffer): < 2 µM | solubility ([12]; pH 1.2, simulated gastric fluid): 500 µM (≈ 247 µg/mL) | solubility ([12]; purified water, water): < 2 µM | Papp at 2 µmol/L [13]: 3.3 ×10⁻⁶ cm/s | efflux transporter substrate [14]: substrate of efflux transporters | mClint [15]: 2.62 mL/min/gm liver | % metabolized ([15]; 1 µmol/L, 30 minutes, NADPH): 55% | mClint [16]: 0.67 mL/min/gm liver | % metabolized ([16]; 1 µmol/L, 30 minutes, NADPH): ≤ 18% | mCLlint [17]: 3.49 mL/min/gm liver | % metabolized ([17]; 1 µmol/L, 30 minutes, NADPH): 66% | IC50 [18]: > 30000 nM | IC50 [19]: > 30000 nM | IC50 [20]: > 30000 nM | IC50 [21]: > 30000 nM | IC50 [22]: 5000 to 15000 nM and 5500 nM | IC50 [23]: 5000 to 15000 nM and 14700 nM | fraction unbound [24]: 0.088 | fraction unbound [25]: 0.016 | clearance ([26]; iv, 1 mg/kg): 39.5 mL/min/kg | half-life ([26]; iv, 1 mg/kg): 24.6 min | AUC ([26]; po, 3 mg/kg): 590 ng·h/mL | Cmax ([26]; po, 3 mg/kg): 703 ng/mL | Tmax ([26]; po, 3 mg/kg): 15 min | half-life ([26]; po, 3 mg/kg): 45.6 min | Vd [27, 34]: 0.88 ± 0.12 L/kg | clearance [27, 34]: 36 ± 7.8 mL/min/kg | half-life [27, 34]: 36 ± 6 min | AUC [27, 35]: 908 ± 170 ng·h/mL | bioavailability [27, 35]: 75% | half-life [27, 35]: 132 ± 78 min | Cmax ([27]; male, Wistar, plasma, po, 3 mg/kg, peak plasma concentration (Cmax), rats, oral (3 mg/mg), mean ± SD, n = 4): 650 ± 222 ng/mL | exposure to free drug at efficacy dose ([27]; considering 91% PPB): 360 nmol/L | reduction of clinical scores compared with vehicle controls ([28]; 0.125 mg/kg once daily oral): 22% | group mean histologic severity score of paws ([28]; 0.125 mg/kg once daily): 5 | reduction of clinical scores compared with vehicle controls ([28]; 0.25 mg/kg once daily oral): 61% | group mean histologic severity score of paws ([28]; 0.25 mg/kg once daily): 3.75 | reduction of clinical scores compared with vehicle controls ([28]; 0.5 mg/kg once daily oral): 93% | group mean histologic severity score of paws ([28]; 0.5 mg/kg once daily): 1 | efficacy in arthritis model compared with ibrutinib ([28]; 0.6 mg/kg ZYBT1 versus 3 mg/kg Ibrutinib): comparable efficacy as 3 mg/kg Ibrutinib | reduction of clinical scores compared with vehicle controls ([28]; 1 mg/kg once daily oral): 97% | group mean histologic severity score of paws ([28]; 1 mg/kg once daily): 0.2 | body weight change ([28]; 0.125, 0.25, 0.5 & 1 mg/kg, OD, end of the study (Figure S5)): did not observe any body weight change | lowest, significantly efficacious dose ([28]; once daily): 0.25 mg/kg | time to improvement in clinical signs of disease after initiation of dosing ([28]; once daily oral dosing): 2 days | inhibition of paw volume ([29]; 75 mg/kg dose): complete inhibition of paw volume | serum levels of IL‐6 ([29]; 0.2, 1, 5, 25, 75 mg/kg): reduced with the treatment in a dose‐dependent manner | body weight ([29]; 0.2, 1, 5, 25, 75 mg/kg, SCW control animals lost weight): restored the body weight in a dose dependent manner | hematological and biochemical profile, clinical signs and body weight [30]: did not show any change in hematological and biochemical profile, clinical signs and body weight | tumor growth inhibition ([31]; 1.5 mg/kg BID oral): 10% | tumor growth inhibition ([31]; 3 mg/kg BID oral): 50% | anti‐tumor efficacy compared with ibrutinib ([31]; 12.5 mg/kg, BID, intra peritoneal, 14 consecutive days (Figure S2)): comparable; also recorded: slightly better potency compared to Ibrutinib | tumor growth inhibition ([31]; 15 mg/kg BID oral): 88% | anti‐tumor efficacy compared with acalabrutinib ([31]; 15 mg/kg, BID, p.o., 14 consecutive days (Figure S3)): much better efficacy than acalabrutinib | effect on body weight ([31]; 1.5, 3 & 15 mg/kg, p.o, BID, 20 days (Figure S4)): does not have any effect on the body weight | time for which cell killing is maintained after drug wash‐off [32]: at least 48 hours | IC50 [33]: 0.4 nM
